Reference: US9828338B2, “Carbamate derivatives of lactam based N-acylethanolamine acid amidase (NAAA) inhibitors” (The Regents of the University of California, priority 2013, dated 2017)
Read-outs that look alike come from different tables or passages of the source.

Key:
Type in all cases: biochemical
r-NAAA = molecular target: T1, r-NAAA (Rattus norvegicus, UniProt Q5KTC7); experiment: UPLC/MS r-NAAA assay
T1 construct: Lysosomal NAAA protein preparation was obtained by homogenizing male Sprague-Dawley rat lungs; tissue Charles River (animals); host or cells: male Sprague-Dawley rat lung, soluble lysosomal fraction
T1 sequence (Q5KTC7 34-362): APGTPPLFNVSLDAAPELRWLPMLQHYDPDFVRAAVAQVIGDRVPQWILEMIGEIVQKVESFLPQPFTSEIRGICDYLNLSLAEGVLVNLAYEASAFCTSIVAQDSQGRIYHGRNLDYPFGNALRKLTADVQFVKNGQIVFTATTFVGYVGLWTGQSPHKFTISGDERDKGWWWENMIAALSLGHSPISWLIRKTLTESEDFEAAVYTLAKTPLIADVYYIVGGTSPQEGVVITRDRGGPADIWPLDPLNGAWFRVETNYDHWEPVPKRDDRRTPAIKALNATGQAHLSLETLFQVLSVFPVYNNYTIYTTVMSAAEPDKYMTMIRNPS
Method: Lysosomal NAAA protein preparation was obtained by homogenizing male Sprague-Dawley rat lungs (Charles River) in 20 mM Tris-HCl buffer pH 7.4 containing 0.32M sucrose. […] Supernatants were then centrifuged at 12,000 xg for 30 min at 4° C. Pellets were then resuspended in PBS pH 7.4 and subjected to a freeze/thaw cycle at −80° C. The suspension was finally centrifuged at 105,000×g for 1 h at 4° C. The supernatant was then used in the enzymatic assay.
NAAA protein preparation was pre-incubated with various concentrations of test compounds or vehicle control in 100 mM NaH2PO4/Citrate buffer, 1% Triton-X, 3 mM DTT (pH 4.5) for 30 min at 37° C. Samples were then incubated with heptadecenoylethanolamide (50 μM, Avanti Polar Lipids) at 37° C. for 30 min. The reaction was terminated by addition of cold methanol containing heptadecanoic acid (NuCheck Prep) as internal standard. Samples were then analyzed by UPLC/MS (Acquity, Waters). […] The column temperature was 40° C. Electrospray ionization was in the negative mode, capillary voltage was 0.5 kV, cone voltage was […], desolvation temperature was 500° C. N2 was used as drying gas at a flow rate of 1000 L/hour and a temperature of 500° C. […] Calibration curves were generated using commercial heptadecenoic acid (NuCheck Prep) Inhibition of NAAA activity was calculated as reduction of heptadecenoic acid in the samples compared to vehicle controls. IC50 values were calculated by non-linear regression analysis of log [concentration]/inhibition curves using GraphPad Prism 5 (GraphPad Software Inc., CA—USA) applying a standard slope curve fitting.

human NAAA = molecular target: T2, human NAAA (Homo sapiens, UniProt Q02083); experiment: Fluorogenic h-NAAA assay
T2 construct: made in house; host or cells: HEK293 cells, stably transfected; soluble lysosomal fraction used as enzyme source
T2 sequence (Q02083 29-359): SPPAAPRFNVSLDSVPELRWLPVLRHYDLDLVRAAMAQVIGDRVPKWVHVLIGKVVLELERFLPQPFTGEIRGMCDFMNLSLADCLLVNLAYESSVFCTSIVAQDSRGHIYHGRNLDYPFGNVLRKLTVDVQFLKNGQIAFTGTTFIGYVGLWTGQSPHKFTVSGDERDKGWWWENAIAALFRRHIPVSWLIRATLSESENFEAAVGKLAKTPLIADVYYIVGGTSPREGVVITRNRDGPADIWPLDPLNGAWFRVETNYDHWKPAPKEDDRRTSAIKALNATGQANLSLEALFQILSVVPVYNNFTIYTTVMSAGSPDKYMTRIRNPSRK
Method: Hek293 cells stably transfected with the human NAAA coding sequence cloned from a human spleen cDNA library were used as enzyme source. Recombinant HEK-hNAAA pellets were resuspended in homogenizing buffer, and sonicated. Samples were centrifuged at 800×g for 15 min at 4° C. and the resultant supernatants were then ultracentrifuged at 12,000×g for 30 min at 4° C. The pellets were resuspended in PBS pH 7.4 on ice and subjected to a freeze/thaw cycle at −80° C. The suspension was finally centrifuged at 105,000×g for 1 h at 4° C. Protein concentration was measured and samples aliquoted and stored at −80° C. until use.
The assay was run in Optiplate 96-wells black plates, in a total reaction volume of 200 μL. NAAA protein preparation (4.0 μg) was pre-incubated for 10 min with various concentrations of test compounds or vehicle control (5% DMSO) in 100 mM citrate/phosphate buffer (pH 4.5) containing 3.0 mM DTT, 0.1% Triton X-100, 0.05% BSA, 150 mM NaCl. N-(4-methyl-2-oxo-chromen-7-yl)-hexadecanamide was used as a substrate (5.0 μM) and the reaction carried over for 30 min at 37° C. The samples were then read in a Perkin Elmer Envision plate reader using an excitation wavelength of 360 nm and emission 460 nm. IC50 values were calculated by non-linear regression analysis of log [concentration]/inhibition curves using GraphPad Prism 5 (GraphPad Software Inc., CA—USA) applying a standard slope curve fitting.

Rat AC (r-AC) = molecular target: T3, Rat AC (r-AC) (Rattus norvegicus, UniProt Q6P7S1); experiment: Rat AC (r-AC) assay; conditions: for IC50: read-out: r-AC UPLC/MS assay IC50
T3 construct: V5 (C); His (C); made in house; host or cells: HEK293 cells transfected with pEF6-rAC-V5/His, G418 selected; soluble lysosomal fraction
T3 sequence (Q6P7S1 21-394): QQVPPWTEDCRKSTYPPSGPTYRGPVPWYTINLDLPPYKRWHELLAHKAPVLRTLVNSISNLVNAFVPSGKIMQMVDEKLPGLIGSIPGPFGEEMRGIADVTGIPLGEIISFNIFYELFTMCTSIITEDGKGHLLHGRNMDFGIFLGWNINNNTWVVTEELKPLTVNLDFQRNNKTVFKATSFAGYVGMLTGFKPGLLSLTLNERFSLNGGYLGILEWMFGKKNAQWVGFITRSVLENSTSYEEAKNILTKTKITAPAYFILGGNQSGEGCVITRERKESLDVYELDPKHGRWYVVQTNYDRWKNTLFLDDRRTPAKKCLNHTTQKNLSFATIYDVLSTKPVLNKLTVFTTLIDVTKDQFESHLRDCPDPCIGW
Method: The selectivity of selected compounds versus Acid Ceramidase (AC) was determined.
Rat AC (r-AC) was cloned from a brain cDNA library using primers based on the sequence obtained from the National Center for Biotechnology Information (NCBI) database: 5′rAC (5′-[…]-3′) (SEQ ID NO:1) and 3′rAC (5′-[…]-3′) (SEQ ID NO:2). The PCR (High Fidelity PCR Master, Roche) product was subcloned into a pEF6-V5/His vector (Invitrogen) to construct a mammalian expression vector encoding V5/His-tagged rat AC. HEK293 cells were transfected with pEF6-rAC-V5/His using Super-Fect reagent (Qiagen) and screened with G418 (0.3 mg/mL). Cells were suspended in 20 mM Tris HCl (pH 7.5) containing 0.32M sucrose, sonicated and centrifuged at 800×g for 15 minutes at 4° C. The supernatants were centrifuged again at 12,000×g for 30 minutes at 4° C. The pellets were suspended in phosphate-buffered saline (PBS) and subjected to 2 freeze-thaw cycles at −80° C. The suspensions were centrifuged at 105,000×g for 1 hour at 4° C. The supernatants containing recombinant AC were kept at −80° C. until use. Protein concentration was measured using the bicinchoninic acid (BCA) assay (Pierce). Recombinant rat AC (50 μg) was preincubated with inhibitors (final DMSO concentration 1%) in assay buffer (100 mM sodium phosphate, 0.1% Nonidet P-40, 150 mM NaCl, 3 mM DTT, 100 mM sodium citrate, pH 4.5) for 30 minutes at 37° C. Reactions were started by the addition of 100 μM N-lauroyl ceramide (Nu-Chek Prep, Elysian, Minn.) and carried on for 30 minutes at 37° C. Reactions were stopped by addition of a mixture of chloroform/methanol (2:1, vol/vol) containing 1 nmol of heptadecanoic acid (HDA; NuChek Prep). The organic phases were collected, dried under N2, and analyzed by LC-MS in the negative-ion mode using […] (HDA) as internal standard (m/z=199 for lauric acid, m/z=269 for HDA). […]. The column temperature was 50° C. Electrospray ionization (ESI) was in the negative mode, capillary voltage as 4 kV, and fragmentor voltage was 100 V. N2 was used as drying gas at a flow rate of 13 L/min and a temperature of 350° C. Nebulizer pressure was set at 60 psi. We monitored [M-H]− in the selected-ion monitoring (SIM) mode using HDA as internal standard. Calibration curves were generated using commercial lauric acid (Nu-Chek Prep; m/z=199).

[1] = @ 10 μM, read-out: r-AC UPLC/MS assay % inhib.

Row | SMILES | IC50 (r-NAAA) | IC50 (human NAAA) | also measured
1 | CCCCC1CCC(OC(=O)N[C@H]2CNC2=O)CC1 (mixture of isomers) [Example 61, (1s,4R) and (1r,4S)-(4-Butylcyclohexyl)-N-[(3S)-2-oxoazetidin-3-yl]-carbamate] | 700 nM | 323 nM | 
2 | CCCCCCCOC(=O)N[C@H]1CNC1=O [Example 1, Heptyl-N-[(3S)-2-oxoazetidin-3-yl]-carbamate] | 700 nM |  | inhibition at 1 µM (Rat AC (r-AC); @ 1 μM, read-out: r-AC UPLC/MS assay % inhib.): 37%
3 | CCCCC/C=C/CCOC(=O)N[C@H]1CNC1=O [Example 9, [(E)-Non-3-enyl]-N-[(3S)-2-oxoazetidin-3-yl]-carbamate] | 180 nM | 78 nM | 
4 | O=C(N[C@H]1CNC1=O)OCCCCc1ccccc1 [Example 13, 4-Phenylbutyl-N-[(3S)-2-oxoazetidin-3-yl]-carbamate] | 2430 nM | 930 nM | 
5 | O=C(N[C@H]1CNC1=O)OCCCC1CCCC1 [Example 21, 3-Cyclopentylpropyl-N-[(3S)-2-oxoazetidin-3-yl]-carbamate] | 220 nM | 97 nM | 
6 | COc1ccc(CCCCOC(=O)N[C@H]2CNC2=O)cc1 [Example 22, 4-(4-Methoxyphenyl)-butyl-N-[(3S)-2-oxoazetidin-3-yl]-carbamate] | 790 nM | 573 nM | 
7 | O=C(N[C@H]1CNC1=O)OCc1ccc(C2CCCCC2)cc1 [Example 31, (4-Cyclohexylphenyl)-methyl-N-[(3S)-2-oxoazetidin-3-yl]-carbamate] | 28 nM |  | IC50 (Rat AC (r-AC)): 21700 nM
8 | O=C(N[C@H]1CNC1=O)OCc1ccc(C(=O)c2ccccc2)cc1 [Example 52, (4-Benzoylphenyl)-methyl-N-[(3S)-2-oxoazetidin-3-yl]-carbamate] | 420 nM | 639 nM | 
9 | O=C(N[C@H]1CNC1=O)OCc1ccc(C23CC4CC(CC(C4)C2)C3)cc1 [Example 58, [4-(1-Adamantyl)-phenyl]-methyl-N-[(3S)-2-oxoazetidin-3-yl]-carbamate] | 2700 nM | 2100 nM | 
10 | CCCCOc1ccc(COC(=O)N[C@H]2CNC2=O)cc1 [Example 63, (4-Butoxyphenyl)-methyl-N-[(3S)-2-oxoazetidin-3-yl]-carbamate] | 240 nM | 104 nM | 
11 | C[C@@H]1NC(=O)[C@H]1NC(=O)OCCCCC1CCCCC1 [Example 72, 4-Cyclohexylbutyl-N-[(2S,3S)-2-methyl-4-oxo-azetidin-3-yl]-carbamate] | 50 nM |  | inhibition at 10 µM (Rat AC (r-AC); [1]): 20%
12 | C[C@@H]1NC(=O)[C@H]1NC(=O)OCc1ccc(-c2ccccc2)cc1 [Example 73, (4-Phenylphenyl)-methyl-N-[(2S,3S)-2-methyl-4-oxo-azetidin-3-yl]-carbamate] | 900 nM |  | inhibition at 10 µM (Rat AC (r-AC); read-out: r-AC UPLC/MS assay % inhib.): 20%
13 | C[C@H]1NC(=O)[C@H]1NC(=O)OCCCCC1CCCCC1 [Example 76, 4-Cyclohexylbutyl-N-[(2R,3S)-2-methyl-4-oxo-azetidin-3-yl]-carbamate] | 87000 nM |  | inhibition at 10 µM (Rat AC (r-AC); [1]): 5%

Second part, led by results:

Row | IC50 (r-NAAA) | IC50 (human NAAA) | SMILES | also measured
14 | 16 nM | 39 nM | O=C(N[C@H]1CNC1=O)OCc1ccc(C2CC3CCC2C3)cc1 (mixture of isomers) [Example 56, [4-(1R,2R,4S)- and (1S,2S,4R)-Norbornan-2-yl-phenyl)]-methyl-N-[(3S)-2-oxoazetidin-3-yl]-carbamate] | 
15 | 250 nM | 76 nM | CCCCC/C=C\CCOC(=O)N[C@H]1CNC1=O [Example 10, [(Z)-Non-3-enyl]-N-[(3S)-2-oxoazetidin-3-yl]-carbamate] | 
16 | 310 nM |  | O=C(N[C@H]1CNC1=O)OCc1ccc(-c2ccccc2)cc1 [Example 17, (4-Phenylphenyl)-methyl-N-[(3S)-2-oxoazetidin-3-yl]-carbamate] | IC50 (Rat AC (r-AC)): 20100 nM
17 | 40 nM | 17 nM | CCCCCCCCCOC(=O)N[C@H]1CNC1=O [Example 25, Nonyl-N-[(3S)-2-oxoazetidin-3-yl]-carbamate] | 
18 | 55 nM | 25 nM | CCCCCCCCCCOC(=O)N[C@H]1CNC1=O [Example 30, Decyl-N-[(3S)-2-oxoazetidin-3-yl]-carbamate] | 
19 | 300 nM | 230 nM | O=C(N[C@H]1CNC1=O)OCc1ccc(Cc2ccccc2)cc1 [Example 34, (4-Benzylphenyl)-methyl-N-[(3S)-2-oxoazetidin-3-yl]-carbamate] | 
